Experimental findings from BindingDB's records for patent US20250179023 (Abbisko Therapeutics, 2025) are described below.

The assay addresses Programmed cell death 1 ligand/protein 1 (Homo sapiens, UniProt Q9NZQ7). The assay is described as follows: PD1-PDL1 HTRF Binding Activity Test. As to the method:
The effect of compounds of the examples of the present invention on the PD-1/PD-L1 interaction was determined by the PD-1/PD-L1 binding assay kit from Cisbio (#64ICP01PEG or 64ICP01PEH).
A general note: TR-FRET usually uses a lanthanide donor and a delayed reading to cut background.

Programmed cell death 1 ligand/protein 1, sequence (Q9NZQ7 whole entry): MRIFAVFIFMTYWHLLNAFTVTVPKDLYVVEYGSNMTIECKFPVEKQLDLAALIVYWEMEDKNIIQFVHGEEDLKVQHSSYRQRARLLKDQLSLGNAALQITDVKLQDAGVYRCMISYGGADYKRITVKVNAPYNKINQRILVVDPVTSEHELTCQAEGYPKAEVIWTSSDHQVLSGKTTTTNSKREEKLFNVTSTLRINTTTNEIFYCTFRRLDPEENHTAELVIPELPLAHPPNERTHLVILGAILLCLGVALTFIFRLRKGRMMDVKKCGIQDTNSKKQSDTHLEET
Programmed cell death 1 ligand/protein 1, sequence (Q15116 whole entry, further chain): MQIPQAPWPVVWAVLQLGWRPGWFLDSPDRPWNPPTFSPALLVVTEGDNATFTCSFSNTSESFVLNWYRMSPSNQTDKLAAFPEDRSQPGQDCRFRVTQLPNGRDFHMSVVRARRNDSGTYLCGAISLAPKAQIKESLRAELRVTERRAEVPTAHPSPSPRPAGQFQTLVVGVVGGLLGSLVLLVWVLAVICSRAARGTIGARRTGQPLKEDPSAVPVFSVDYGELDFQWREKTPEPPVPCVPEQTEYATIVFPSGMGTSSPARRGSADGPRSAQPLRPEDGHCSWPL

By IC50 is commonly meant the midpoint of a concentration-inhibition curve. A lower IC50 goes with inhibition by little substance. Molecule `Cc1c(NC(=O)c2cc(C3CC3)c(CNCCC34CCC(C(=O)O)(CC3)C4)cn2)cccc1-c1cccc(NC(=O)c2cc(C3CC3)c(CNC34CCC(C(=O)O)(CC3)C4)cn2)c1C` [US20250179023, Example 5] showed a half-maximal inhibitory concentration (IC50) of 4.19 nM.
